Experimental data: patent US10294202B2, “Pyrrolidinones as herbicides” (FMC Corporation, priority 2013, dated 2019)

What was measured:
ryegrass, Italian = experiment: Test A pre-/postemergence herbicide test; type: in vivo, Lolium multiflorum; conditions: for Plant response rating, Ryegrass, Italian: 0 to 100 scale
In short: (§1)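 Visual 0–100 ratings (100 = complete control) made about 10 days after treatment, greenhouse-held plants compared with untreated controls. Treatments: postemergence sprays on one- to two-leaf plants (2–10 cm tall) and preemergence directed soil sprays after planting in loam–sand, chemicals formulated in non-phytotoxic solvent containing surfactant.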

ragweed = experiment: Test A pre-/postemergence herbicide test; type: in vivo, Ambrosia elatior; conditions: for Plant response rating, Ragweed: 0 to 100 scale
In short: as §1

galium = experiment: Test A postemergence herbicide test; type: in vivo, Galium aparine; conditions: for Plant response rating, Galium: 125 g ai/ha, 0 to 100 scale, 0 is no effect, 100 is complete control; for Galium plant response rating (0 to 100 scale, 0 is no effect, 100 is complete control): 500 g ai/ha
In short: (§2)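 Visual injury rating, 0 (no effect) to 100 (complete control), versus untreated controls ~10 days after treatment. Postemergence spray applied at one- to two-leaf stage, plants 2–10 cm tall, potted in loam soil/sand. Greenhouse-held.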

rice = experiment: Test B flooded paddy test; type: in vivo, Oryza sativa; conditions: 500 g ai/ha, Flood; scale of 0 to 100 where 0 is no effect and 100 is complete control
In short: (§3)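 Visual ratings from 0, meaning no effect, up to 100, meaning complete control, were made by comparison with untreated controls 13 to 15 days after treatment. Test compounds went straight into floodwater standing 3 cm over the soil of pots holding 2-leaf seedlings.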

barnyardgrass [1] = experiment: Test B flooded paddy test; type: in vivo, Echinochloa crus-galli; conditions: 500 g ai/ha, Flood; scale of 0 to 100 where 0 is no effect and 100 is complete control
In short: as §3

ducksalad = experiment: Test B flooded paddy test; type: in vivo, Heteranthera limosa; conditions: 500 g ai/ha, Flood; scale of 0 to 100 where 0 is no effect and 100 is complete control
In short: as §3

kochia = experiment: Test A pre-/postemergence herbicide test; type: in vivo, Kochia scoparia; conditions: for Plant response rating, Kochia: 0 to 100 scale
In short: as §1

sedge, umbrella = experiment: Test B flooded paddy test; type: in vivo, Cyperus difformis; conditions: 500 g ai/ha, Flood; scale of 0 to 100 where 0 is no effect and 100 is complete control
In short: as §3

barnyardgrass [2] = experiment: Test A pre-/postemergence herbicide test; type: in vivo, Echinochloa crus-galli; conditions: for Plant response rating, Barnyardgrass: 0 to 100 scale
In short: as §1

corn = experiment: Test A pre-/postemergence herbicide test; type: in vivo, Zea mays; conditions: Postemergence; for Plant response rating, Corn: 125 g ai/ha, 0 to 100 scale, 0 is no effect, 100 is complete control; for Corn plant response rating (0 to 100 scale, 0 is no effect, 100 is complete control): 500 g ai/ha
In short: as §1

pigweed = experiment: Test A pre-/postemergence herbicide test; type: in vivo, Amaranthus retroflexus; conditions: for Plant response rating, Pigweed: 0 to 100 scale
In short: as §1

giant foxtail = experiment: Test A pre-/postemergence herbicide test; type: in vivo, Setaria faberii; conditions: for Plant response rating, Foxtail, Giant: 0 to 100 scale
In short: as §1

blackgrass = experiment: Test A postemergence herbicide test; type: in vivo, Alopecurus myosuroides; conditions: for Plant response rating, Blackgrass: 125 g ai/ha, 0 to 100 scale, 0 is no effect, 100 is complete control; for Blackgrass plant response rating (0 to 100 scale, 0 is no effect, 100 is complete control): 500 g ai/ha
In short: as §2

wheat = experiment: Test A pre-/postemergence herbicide test; type: in vivo, Triticum aestivum; conditions: Postemergence; for Plant response rating, Wheat: 125 g ai/ha, 0 to 100 scale, 0 is no effect, 100 is complete control; for Wheat plant response rating (0 to 100 scale, 0 is no effect, 100 is complete control): 500 g ai/ha
In short: as §1

[3] = 125 g ai/ha, visual rating, 0 no effect, 100 complete control, approximately 10 days, preemergence
[4] = Postemergence, 125 g ai/ha, 0 is no effect, 100 is complete control
[5] = preemergence, 500 g ai/ha, 0 is no effect and 100 is complete control

Structure (SMILES) | Plant response rating, Ryegrass, Italian (ryegrass, Italian; [3]) | Plant response rating, Ryegrass, Italian (ryegrass, Italian; [4]) | Ryegrass, Italian plant response rating (0 to 100 scale, 0 is no effect, 100 is complete control) (ryegrass, Italian; Postemergence, 500 g ai/ha) | Plant response rating, Ryegrass, Italian (ryegrass, Italian; [5]) | Plant response rating, Ragweed (ragweed; [3]) | Plant response rating, Ragweed (ragweed; [4]) | Ragweed plant response rating (0 to 100 scale, 0 is no effect, 100 is complete control) (ragweed; Postemergence, 500 g ai/ha) | Plant response rating, Ragweed (ragweed; [5]) | Plant response rating, Galium (galium) | Galium plant response rating (0 to 100 scale, 0 is no effect, 100 is complete control) (galium) | Plant response rating, Rice (rice) | Plant response rating, Barnyardgrass (barnyardgrass [1]) | Plant response rating, Ducksalad (ducksalad) | Plant response rating, Kochia (kochia; [3]) | Plant response rating, Kochia (kochia; [4]) | Kochia plant response rating (0 to 100 scale, 0 is no effect, 100 is complete control) (kochia; Postemergence, 500 g ai/ha) | Plant response rating, Kochia (kochia; [5]) | Plant response rating, Sedge, Umbrella (sedge, umbrella) | Plant response rating, Barnyardgrass (barnyardgrass [2]; [3]) | Plant response rating, Barnyardgrass (barnyardgrass [2]; [4]) | also measured
O=C1NCC(c2ccc(Cl)cc2)C1C(=O)Nc1ccccc1F (stereo not drawn) [Compound 217] | 40 | 0 | 30 | 60 | 0 | 0 | 30 | 50 | 30 | 50 | 0 | 40 | 100 | 30 | 20 | 70 | 70 | 0 | 70 | 70 | Barnyardgrass plant response rating (0 to 100 scale, 0 is no effect, 100 is complete control) (barnyardgrass [2]; Postemergence, 500 g ai/ha): 90; Plant response rating, Barnyardgrass (barnyardgrass [2]; [5]): 90; Plant response rating, Corn (corn): 20; Corn plant response rating (0 to 100 scale, 0 is no effect, 100 is complete control) (corn): 30; Plant response rating, Pigweed (pigweed; [3]): 20; Plant response rating, Pigweed (pigweed; [4]): 0; Pigweed plant response rating (0 to 100 scale, 0 is no effect, 100 is complete control) (pigweed; Postemergence, 500 g ai/ha): 0; Plant response rating, Pigweed (pigweed; [5]): 40; Plant response rating, Foxtail, Giant (giant foxtail; [3]): 90; Plant response rating, Foxtail, Giant (giant foxtail; [4]): 80; Foxtail, Giant plant response rating (0 to 100 scale, 0 is no effect, 100 is complete control) (giant foxtail; Postemergence, 500 g ai/ha): 90; Plant response rating, Foxtail, Giant (giant foxtail; [5]): 90; Plant response rating, Blackgrass (blackgrass): 20; Blackgrass plant response rating (0 to 100 scale, 0 is no effect, 100 is complete control) (blackgrass): 50; Plant response rating, Wheat (wheat): 20; Wheat plant response rating (0 to 100 scale, 0 is no effect, 100 is complete control) (wheat): 30
O=C1NCC(c2ccc(Cl)cc2)C1C(=O)Nc1ccccc1C(F)(F)F (stereo not drawn) [Compound 219] | 0 | 0 | 0 | 0 | 0 | 0 | 0 | 0 | 30 | 60 | 0 | 40 | 100 | 10 | 0 | 10 | 70 | 0 | 30 | 40 | Barnyardgrass plant response rating (0 to 100 scale, 0 is no effect, 100 is complete control) (barnyardgrass [2]; Postemergence, 500 g ai/ha): 50; Plant response rating, Barnyardgrass (barnyardgrass [2]; [5]): 60; Plant response rating, Corn (corn): 0; Corn plant response rating (0 to 100 scale, 0 is no effect, 100 is complete control) (corn): 0; Plant response rating, Pigweed (pigweed; [3]): 0; Plant response rating, Pigweed (pigweed; [4]): 0; Pigweed plant response rating (0 to 100 scale, 0 is no effect, 100 is complete control) (pigweed; Postemergence, 500 g ai/ha): 0; Plant response rating, Pigweed (pigweed; [5]): 0; Plant response rating, Foxtail, Giant (giant foxtail; [3]): 90; Plant response rating, Foxtail, Giant (giant foxtail; [4]): 60; Foxtail, Giant plant response rating (0 to 100 scale, 0 is no effect, 100 is complete control) (giant foxtail; Postemergence, 500 g ai/ha): 80; Plant response rating, Foxtail, Giant (giant foxtail; [5]): 90; Plant response rating, Blackgrass (blackgrass): 40; Blackgrass plant response rating (0 to 100 scale, 0 is no effect, 100 is complete control) (blackgrass): 50; Plant response rating, Wheat (wheat): 0; Wheat plant response rating (0 to 100 scale, 0 is no effect, 100 is complete control) (wheat): 0
O=C1NCC(c2ccc(Cl)cc2)C1C(=O)Nc1ccccc1Cl (stereo not drawn) [Compound 220] | 0 | 0 | 20 | 30 | 0 | 0 | 0 | 0 | 0 | 30 | 0 | 0 | 100 | 0 | 0 | 40 | 40 | 0 | 30 | 40 | Barnyardgrass plant response rating (0 to 100 scale, 0 is no effect, 100 is complete control) (barnyardgrass [2]; Postemergence, 500 g ai/ha): 80; Plant response rating, Barnyardgrass (barnyardgrass [2]; [5]): 80; Plant response rating, Corn (corn): 0; Corn plant response rating (0 to 100 scale, 0 is no effect, 100 is complete control) (corn): 20; Plant response rating, Pigweed (pigweed; [3]): 0; Plant response rating, Pigweed (pigweed; [4]): 0; Pigweed plant response rating (0 to 100 scale, 0 is no effect, 100 is complete control) (pigweed; Postemergence, 500 g ai/ha): 0; Plant response rating, Pigweed (pigweed; [5]): 20; Plant response rating, Foxtail, Giant (giant foxtail; [3]): 80; Plant response rating, Foxtail, Giant (giant foxtail; [4]): 50; Foxtail, Giant plant response rating (0 to 100 scale, 0 is no effect, 100 is complete control) (giant foxtail; Postemergence, 500 g ai/ha): 80; Plant response rating, Foxtail, Giant (giant foxtail; [5]): 90; Plant response rating, Blackgrass (blackgrass): 0; Blackgrass plant response rating (0 to 100 scale, 0 is no effect, 100 is complete control) (blackgrass): 40; Plant response rating, Wheat (wheat): 0; Wheat plant response rating (0 to 100 scale, 0 is no effect, 100 is complete control) (wheat): 20
